Data set [1] in a line: Metabolic stability in bile fistula rat model assessed as intact drug level recovered in bile at 1 umol/min/kg, iv over 1 hr. The data set is classed as ADME, organism-based. The following applies: in vivo.
Data set [2] in a line: Metabolic stability in bile fistula rat model assessed as intact drug level recovered in bile at 1 umol/min/kg administered intraduodenally over 1 hr. It counts as ADME. The conditions noted are these: in vivo, other.
Data set [3] is described as follows: Metabolic stability in human stool broth culture assessed as unmodified drug level after 12 hrs. It counts as ADME. The following applies: read-out: Stability.

The values below come from ChEMBL document CHEMBL1154755, “Discovery of 6alpha-ethyl-23(S)-methylcholic acid (S-EMCA, INT-777) as a potent and selective agonist for the TGR5 receptor, a novel target for diabesity” (J Med Chem, 2009).

For `CC[C@H]1[C@@H](O)[C@@H]2[C@H](C[C@H](O)[C@]3(C)[C@@H]([C@H](C)C[C@@H](C)C(=O)O)CC[C@@H]23)[C@@]2(C)CC[C@@H](O)C[C@@H]12`, the Stability in data set [1] is 65 %Idose; in data set [2], 68 %Idose.
As for `CC[C@H]1[C@@H](O)[C@@H]2[C@H](C[C@H](O)[C@]3(C)[C@@H]([C@H](C)C[C@H](C)C(=O)O)CC[C@@H]23)[C@@]2(C)CC[C@@H](O)C[C@@H]12`, the Stability in data set [1] worked out at 93 %Idose; in data set [2], 94 %Idose. In data set [3], the remaining at 12 h is > 95%.
For `C[C@H](CCC(=O)O)[C@H]1CC[C@H]2[C@@H]3[C@H](O)C[C@@H]4C[C@H](O)CC[C@]4(C)[C@H]3CC[C@]12C` [CHENODIOL], the Stability in data set [1] is listed as 4 %Idose; in data set [2], 3 %Idose.
As for `C[C@H](CCC(=O)O)[C@H]1CC[C@H]2[C@@H]3[C@H](O)C[C@@H]4C[C@H](O)CC[C@]4(C)[C@H]3C[C@H](O)[C@]12C` [CHOLIC ACID], the figures for the Stability in data set [1] and in data set [2] were 8 %Idose and 12 %Idose, respectively.
